In patent US20040053972A1, “Medicinal compositions having improved absorbability” (priority 2000, published 2004):

Legend:
HER2 = biological target: T1, HER2 (Homo sapiens, UniProt P04626); assay: Inhibition of phosphorylation of receptor tyrosine (HER2) in human breast cancer cells MCF-7; format: cell-based; settings: MCF-7 cells, test compound 2 hours, then heregulin 0.8 μg/mL for 5 minutes
T1 construct: amount of phosphorylation of HER2 tyrosine of the cells; endogenous in cells; host or cells: MCF-7 human breast cancer cell line
Experimental: Inhibition of Phosphorylation of Receptor Tyrosine in Human Breast Cancer Cells
In each well of a 24-well plate, 500 μl of the cell suspension ([…]) of human breast cancer cell line MCF-7 was seeded and incubated at 37° C. in a 5% carbon dioxide gas incubator. On the next day, 250 μl of a 4-fold serial dilution of a solution of a test compound was added to each well and, 2 hours later, 250 μl of a heregulin solution, which was adjusted so as to be the final concentration of 0.8 μg/mL, was added thereto. After 5 minutes, an extracting solution was added thereto to terminate the reaction as well as to extract a protein. The protein was fractionated by protein electrophoresis and the protein in the electrophoretic gel was transferred to a nylon filter. The filter was reacted with a phosphorylated tyrosine-specific antibody. The reaction product was fluorescence-labeled and was exposed to a photo-film. The intensity of the exposure on the photo-film was quantitated by an image-analyzing apparatus.

[1] = test system: human breast cancer cell line BT-474; assay: In vitro inhibition of growth of breast cancer cell BT-474; format: cell-based; settings: 120 h, BT-474 cells, heregulin, cultured for 5 days, SRB staining
Experimental: In vitro Inhibition of Growth of Breast Cancer Cell BT-474
In each well of a 96-well microtiter plate, 100 μl (containing 1,000 cells) of a cell suspension of human breast cancer cell line BT-474 was seeded and incubated at 37° C. in a 5% carbon dioxide gas incubator. On the next day, 100 μl of the 2-fold serial dilution of a solution of each test compound prepared by using 250 μl of a heregulin solution, which was adjusted so as to be the final concentration of 0.8 μg/mL, was added to each well and cultured for 5 days. The solution containing the test compound was removed and the cells were washed and fixed with a 50% trichloroacetic acid solution. To the cells was added a 0.4% (W/V) solution of pigment SRB (dissolved in 1% acetic acid) to fix as well as stain the cell protein (Skehan P. et al., Journal of the National Cancer Institute Vol. 82, pp. 1107-1112, 1990). The pigment solution was removed and the remainder was washed with a 1% acetic acid solution. Then, 100 μl of an extracting solution (10 mM Tris buffer) was added thereto to extract the pigment. The optical density of the extract at the wavelength of 550 nm was measured to determine the amount of the cells in terms of the amount of the protein. The proportion of the amount of remaining protein of each treated group was determined by taking the amount of protein of the control to which no solution of a test compound was added as 100% to calculate the value of the concentration of the compound required for inhibiting the remaining cells by 50% of that of the control (IC50)

[2] = test system: Human breast cancer cell line BT-474; assay: In vivo breast cancer inhibiting effect (BT-474 implanted in nude mice); settings: nude mice with BT-474 tumors, orally twice daily 30 mg/kg body weight for 10 days
Experimental: In Vivo Breast Cancer Inhibiting Effect
Human breast cancer cell line BT-474 (5,000,000 cells) were suspended in a gel-matrix solution. The suspension was subcutaneously implanted in the breast of 6-week-old female Balb/C strain nude mice (Friedman R. et al., Proceedings of the National Academy of Sciences of the U.S.A. Vol. 87, pp. 6698-6702, 1990). At the time of the implantation and seven days after the implantation, an estradiol dipropionate solution (5 mg/mL) was intramuscularly administered to the hind leg for the purpose of enhancing a take ratio of tumors. Fourteen days after the implantation, the diameters of tumors were determined. For the experiment were used 5 mice per group with similar tumor size. Each of compounds (4, 6, 14, 17, 19, 20, 23, 24 and 26) of the present invention was suspended in a 5% gum arabic solution (physiological saline) and administered orally twice daily in dose of 30 mg/kg body weight for 10 days. On the day when the administration was terminated, the diameters of tumors were measured. Tumor volume was calculated by the following equation.
Volume of tumor=longest diameter×shortest diameter×shortest diameter×½
The growth rate of tumors was calculated as the proportion of the value obtained by subtracting the initial volume from the final volume in the group to which the drug was administered, to the value obtained by subtracting the initial volume from the final volume in the control group to which a gum arabic solution was administered.

T1 sequence (P04626 23-1255): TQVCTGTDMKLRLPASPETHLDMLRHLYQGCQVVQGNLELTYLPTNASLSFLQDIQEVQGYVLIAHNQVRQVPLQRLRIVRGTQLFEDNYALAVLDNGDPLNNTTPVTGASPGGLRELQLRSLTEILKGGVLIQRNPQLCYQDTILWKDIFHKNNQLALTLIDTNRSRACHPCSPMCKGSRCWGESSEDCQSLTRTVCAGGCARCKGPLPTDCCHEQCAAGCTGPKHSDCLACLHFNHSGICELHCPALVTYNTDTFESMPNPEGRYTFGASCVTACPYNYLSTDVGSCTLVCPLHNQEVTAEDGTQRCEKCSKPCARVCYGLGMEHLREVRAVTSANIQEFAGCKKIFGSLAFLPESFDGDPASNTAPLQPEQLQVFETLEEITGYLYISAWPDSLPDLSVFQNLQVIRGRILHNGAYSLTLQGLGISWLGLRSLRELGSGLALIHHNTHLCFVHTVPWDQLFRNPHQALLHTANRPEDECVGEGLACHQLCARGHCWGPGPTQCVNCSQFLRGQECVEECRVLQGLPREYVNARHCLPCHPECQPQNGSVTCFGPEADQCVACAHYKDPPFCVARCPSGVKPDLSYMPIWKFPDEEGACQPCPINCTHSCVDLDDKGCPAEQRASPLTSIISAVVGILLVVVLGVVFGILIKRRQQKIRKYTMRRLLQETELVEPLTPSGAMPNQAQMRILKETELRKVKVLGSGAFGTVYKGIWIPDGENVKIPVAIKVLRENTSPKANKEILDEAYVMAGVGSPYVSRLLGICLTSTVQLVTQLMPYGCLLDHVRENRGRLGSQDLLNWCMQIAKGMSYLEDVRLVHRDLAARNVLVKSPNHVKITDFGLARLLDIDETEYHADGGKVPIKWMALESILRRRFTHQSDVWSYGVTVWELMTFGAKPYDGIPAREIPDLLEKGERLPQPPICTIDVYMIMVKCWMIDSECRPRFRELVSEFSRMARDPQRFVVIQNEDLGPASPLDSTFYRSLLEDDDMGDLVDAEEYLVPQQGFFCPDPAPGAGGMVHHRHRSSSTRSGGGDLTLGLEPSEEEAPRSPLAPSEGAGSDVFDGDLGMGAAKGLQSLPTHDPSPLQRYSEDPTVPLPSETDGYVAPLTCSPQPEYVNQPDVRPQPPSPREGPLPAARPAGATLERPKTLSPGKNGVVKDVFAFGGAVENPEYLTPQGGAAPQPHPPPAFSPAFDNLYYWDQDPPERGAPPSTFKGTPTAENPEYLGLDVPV

| SMILES | melting point | IC50 (HER2) | IC50 [1] | Inhibition ratio (%) [2] |
| --- | --- | --- | --- | --- |
| OCCc1nccn1CCCCc1ccc(OCc2coc(/C=C/c3ccc(Cl)cc3)n2)cc1 [B15, 2-[1-[4-[4-[[2-[(E)-2-(4-Chlorophenyl)ethenyl]-1,3-oxazol-4-yl]methoxy]phenyl]butyl]-1H-imidazol-2-yl]-1-ethanol] | 127 to 128 °C | – | – | – |
| Fc1ccc(/C=C/c2nc(COc3cccc(CCCn4ccnn4)c3)co2)c(F)c1 [B8, 1-{3-[3-({2-[(E)-2-(2,4-Difluorophenyl)ethenyl]-1,3-oxazol-4-yl}methoxy)phenyl]propyl}-1H-1,2,3-triazole] | 89 to 90 °C | – | – | – |
| Fc1ccc(/C=C/c2nc(COc3ccc(CCCCn4ccnn4)cc3)co2)cc1 [Reference Example B2, 1-{4-[4-({2-[(E)-2-(4-Fluorophenyl)ethenyl]-1,3-oxazol-4-yl}methoxy)phenyl]butyl}-1H-1,2,3-triazole] | 124 to 125 °C | 1.9 µM | < 0.05 µM | – |
| OCCc1nccn1CCCCc1ccc(OCc2coc(/C=C/c3ccc(F)cc3F)n2)cc1 [Reference Example B19, 2-[1-[4-[4-[[2-[(E)-2-(2,4-Difluorophenyl)ethenyl]-1,3-oxazol-4-yl]methoxy]phenyl]butyl]-1H-imidazol-2-yl]-1-ethanol] | 93 to 95 °C | – | 0.017 µM | – |
| OCCc1nccn1CCCc1ccc(OCc2coc(/C=C/c3ccc(F)cc3F)n2)cc1 [B20, 2-[1-[3-[4-[[2-[(E)-2-(2,4-Difluorophenyl)ethenyl]-1,3-oxazol-4-yl]methoxy]phenyl]propyl]-1H-imidazol-2-yl]-1-ethanol] | 94 to 96 °C | 1.5 µM | < 0.05 µM | – |
| Cc1ccc(/C=C/c2nc(COc3ccc(CCCCn4ccnc4CCO)cc3)co2)cc1 [B10, 2-[1-[4-[4-[[2-[(E)-2-(4-Methylphenyl)ethenyl]-1,3-oxazol-4-yl]methoxy]phenyl]butyl]-1H-imidazol-2-yl]-1-ethanol] | 108 to 109 °C | – | – | – |
| OCC(O)Cc1nccn1CCCc1cccc(OCc2coc(/C=C/c3ccc(C(F)(F)F)cc3)n2)c1 (centres unmarked) [B25, 3-[1-(3-{3-[(2-{(E)-2-[4-(Trifluoromethyl)phenyl]ethenyl}-1,3-oxazol-4-yl)methoxy]phenyl}propyl)-1H-imidazol-2-yl]-1,2-propanediol] | 102 to 104 °C | – | – | – |
| Cc1cccc(/C=C/c2nc(COc3ccc(CCCCn4ccnc4CCO)cc3)co2)c1 [B11, 2-[1-[4-[4-[[2-[(E)-2-(3-Methylphenyl)ethenyl]-1,3-oxazol-4-yl]methoxy]phenyl]butyl]-1H-imidazol-2-yl]-1-ethanol] | 109 to 111 °C | 1.1 µM | < 0.05 µM | – |
| CCc1ccc(/C=C/c2nc(COc3ccc(CCCCn4ccnc4CCO)cc3)co2)cc1 [B13, 2-[1-[4-[4-[[2-[(E)-2-(4-Ethylphenyl)ethenyl]-1,3-oxazol-4-yl]methoxy]phenyl]butyl]-1H-imidazol-2-yl]-1-ethanol] | 94 to 95 °C | – | – | – |
| OCCc1nccn1CCCCc1ccc(OCc2coc(/C=C/c3ccc(F)cc3)n2)cc1 [B14, 2-(1-{4-[4-({2-[(E)-2-(4-Fluorophenyl)ethenyl]-1,3-oxazol-4-yl}methoxy)phenyl]butyl}-1H-imidazol-2-yl)-1-ethanol] | 130 to 132 °C | – | – | – |
| OCC(O)Cc1nccn1CCCCc1ccc(OCc2coc(/C=C/c3ccc(F)cc3)n2)cc1 (centres unmarked) [B23, 3-(1-{4-[4-({2-[(E)-2-(4-Fluorophenyl)ethenyl]-1,3-oxazol-4-yl}methoxy)phenyl]butyl}-1H-imidazol-2-yl)-1,2-propanediol] | 114 to 116 °C | – | – | 27% |
| OCC(O)Cc1nccn1CCCc1cccc(OCc2coc(/C=C/c3ccc(F)cc3F)n2)c1 (centres unmarked) [B27, 3-(1-{3-[3-({2-[(E)-2-(2,4-Difluorophenyl)ethenyl]-1,3-oxazol-4-yl}methoxy)phenyl]propyl}-1H-imidazol-2-yl)-1,2-propanediol] | 92 to 94 °C | – | – | – |
| OCC(O)Cc1nccn1CCCCc1ccc(OCc2coc(/C=C/c3ccc(F)cc3F)n2)cc1 (centres unmarked) [Reference Example B26, 3-(1-{4-[4-({2-[(E)-2-(2,4-Difluorophenyl)ethenyl]-1,3-oxazol-4-yl}methoxy)phenyl]butyl}-1H-imidazol-2-yl)-1,2-propanediol] | – | 0.92 µM | < 0.05 µM | 15% |
| Cc1ccccc1/C=C/c1nc(COc2ccc(CCCCn3ccnc3CCO)cc2)co1 [B12, 2-[1-[4-[4-[[2-[(E)-2-(2-Methylphenyl)ethenyl]-1,3-oxazol-4-yl]methoxy]phenyl]butyl]-1H-imidazol-2-yl]-1-ethanol] | 91 to 93 °C | – | – | – |
| Fc1ccc(/C=C/c2nc(COc3cccc(CCCn4ccnn4)c3)co2)cc1 [B3, 1-{3-[3-({2-[(E)-2-(4-Fluorophenyl)ethenyl]-1,3-oxazol-4-yl}methoxy)phenyl]propyl}-1H-1,2,3-triazole] | 105 to 106 °C | 0.18 µM | < 0.05 µM | – |
| OCCc1nccn1CCCCc1ccc(OCc2coc(/C=C/c3ccc(Br)cc3)n2)cc1 [B16, 2-[1-[4-[4-[[2-[(E)-2-(4-Bromophenyl)ethenyl]-1,3-oxazol-4-yl]methoxy]phenyl]butyl]-1H-imidazol-2-yl]-1-ethanol] | 149 to 150 °C | – | – | – |
| OCC(O)Cc1nccn1CCCCc1ccc(OCc2coc(/C=C/c3c(F)cccc3F)n2)cc1 (centres unmarked) [B28, 3-[1-[4-[4-[[2-[(E)-2-(2,6-Difluorophenyl)ethenyl]-1,3-oxazol-4-yl]methoxy]phenyl]butyl]-1H-imidazol-2-yl]-1,2-propanediol] | 123 to 125 °C | – | – | – |
| FC(F)(F)c1ccc(/C=C/c2nc(COc3ccc(CCCn4ccnn4)cc3)co2)cc1 [B5, 1-(3-{4-[(2-{(E)-2-[4-(Trifluoromethyl)phenyl]ethenyl}-1,3-oxazol-4-yl)methoxy]phenyl}propyl)-1H-1,2,3-triazole] | 157 to 158 °C | – | < 0.05 µM | – |
| FC(F)(F)c1ccc(/C=C/c2nc(COc3cccc(CCCn4ccnn4)c3)co2)cc1 [Reference Example B6, 1-(3-{3-[(2-{(E)-2-[4-(Trifluoromethyl)phenyl]ethenyl}-1,3-oxazol-4-yl)methoxy]phenyl}propyl)-1H-1,2,3-triazole] | 115 to 116 °C | 1.2 µM | < 0.05 µM | 28% |
| Cc1cccc(/C=C/c2nc(COc3ccc(CCCCn4ccnc4CC(O)CO)cc3)co2)c1 (centres unmarked) [B22, 3-(1-{4-[4-({2-[(E)-2-(3-Methylphenyl)ethenyl]-1,3-oxazol-4-yl}methoxy)phenyl]butyl}-1H-imidazol-2-yl)-1,2-propanediol] | 102 to 104 °C | 1.9 µM | < 0.05 µM | – |
| OCC(O)Cc1nccn1CCCCc1ccc(OCc2coc(/C=C/c3ccc(C(F)(F)F)cc3)n2)cc1 (centres unmarked) [B24, 3-[1-(4-{4-[(2-{(E)-2-[4-(Trifluoromethyl)phenyl]ethenyl}-1,3-oxazol-4-yl)methoxy]phenyl}butyl)-1H-imidazol-2-yl]-1,2-propanediol] | 142 to 143 °C | – | – | 28% |
| Fc1ccc(/C=C/c2nc(COc3ccc(CCCCn4ccnn4)cc3)co2)c(F)c1 [B7, 1-{4-[4-({2-[(E)-2-(2,4-Difluorophenyl)ethenyl]-1,3-oxazol-4-yl}methoxy)phenyl]butyl}-1H-1,2,3-triazole] | 115 to 117 °C | – | – | – |
